Among the targets are A*6801 (Homo sapiens, UniProt P04439, A269V/D185E/E176V/E277Q/E87N/F33Y/G231S/I121M/I166T/I218V/L180W/L300P/L318F/N151K/P208A/P217A/Q86R/R169H/T345S); A31 (A*3101) (Homo sapiens, UniProt P04439, A270S/D185E/E176V/E277Q/F33T/G231S/G80R/H175R/I121M/I218V/I322F/K168Q/L300P/L318F/M331R/P217A/Q94H/R138Q/T323A/T345S/T97I/V358M); HLA-A3.2 (A*0301) (Homo sapiens, UniProt P04439); A*3301 (Homo sapiens, UniProt P04439, A270S/D185E/E176V/E277Q/E87N/F33T/G231S/H175R/I121M/I218V/I322F/K168Q/K210R/L300P/L318F/M331R/P217A/Q86R/Q94H/R138Q/T323A/T345S/T97I/V358M/Y195H); HLA-A11 (A*1101) (Homo sapiens, UniProt P04439, A114D/D185E/E176A/F33Y/L180Q/S129P/T187R).

Assay in all cases: biochemical
Holding throughout (format): binding

The record followed here is patent publication US9340577B2, “HLA binding motifs and peptides and their uses” (priority 1992, dated 2016).

pIC50: −log10 of the molar value. No end group written: not given here.

Regarding `CSCC[C@H](NC(=O)[C@@H](NC(=O)[C@H](C)N)[C@@H](C)O)C(=O)N[C@@H](CS)C(=O)N[C@@H](CCCCN)C(=O)N[C@@H](Cc1c[nH]cn1)C(=O)N[C@@H](Cc1ccc(O)cc1)C(=O)N[C@@H](CCCNC(=N)N)C(=O)N[C@@H](CCCNC(=N)N)C(=O)O` [Peptide 88.0343], the pIC50 on A*6801 was 7.26; against A31 (A*3101), 7.64; against HLA-A3.2 (A*0301), 6.66; at A*3301, 7.13; on HLA-A11 (A*1101), 7.72.

On to `CSCC[C@H](NC(=O)[C@@H](N)CCCCN)C(=O)N[C@@H](Cc1ccccc1)C(=O)N[C@@H](CS)C(=O)N[C@@H](CCC(N)=O)C(=O)N[C@@H](CC(C)C)C(=O)N[C@@H](C)C(=O)N[C@@H](CCCCN)C(=O)O` [Peptide 1556.52], for which the pIC50 against A*6801 was 5.89; at A31 (A*3101), 6.39; against HLA-A3.2 (A*0301) it was 7.43; against A*3301, less than 4.70; against HLA-A11 (A*1101) it was 7.66.

For `CC(C)C[C@H](NC(=O)[C@H](Cc1c[nH]cn1)NC(=O)[C@H](CO)NC(=O)[C@H](CO)NC(=O)[C@H](Cc1c[nH]cn1)NC(=O)[C@H](C)NC(=O)[C@@H](N)CCCNC(=N)N)C(=O)N[C@@H](CCCCN)C(=O)O` [Peptide 1556.70], the pIC50 was 5.54 at A*6801; 6.21 at A31 (A*3101); 7.57 against HLA-A3.2 (A*0301); less than 4.70 at A*3301; 7.74 against HLA-A11 (A*1101).

For the compound AACWRSRRR [Peptide 78.0322], the pIC50 is less than 4.70 on A*6801; 6.39 on A31 (A*3101); 5.25 at HLA-A3.2 (A*0301); 4.76 against A*3301; 4.73 against HLA-A11 (A*1101).

As for AAEGVGAASR [Peptide 9017.0187], the pIC50 at A*6801 is 6.35; at A31 (A*3101) it was 5.49; against HLA-A3.2 (A*0301) it was less than 4.70; at A*3301, 5.29; at HLA-A11 (A*1101), 6.32.

Consider AFDLSHFLK [Peptide 9017.0063], for which the pIC50 against A*6801 is 6.67; against A31 (A*3101), 6.19; at HLA-A3.2 (A*0301), 6.11; against A*3301 it was 5.84; against HLA-A11 (A*1101), 7.34.

On to AFRDLCIVYR [Peptide 78.0079], for which the pIC50 at A*6801 is 6.22; at A31 (A*3101), 7.89; on HLA-A3.2 (A*0301), 5.51; against A*3301 it was 7.39; on HLA-A11 (A*1101), 5.36.

As to AILGHIVIPR [Peptide 9017.0224], the negative-log IC50 (pIC50) at A*6801 is 7.38; at A31 (A*3101), 8.70; against HLA-A3.2 (A*0301), 7.51; against A*3301, 6.99; at HLA-A11 (A*1101), 7.32.

As for AILGHIVRPR [Peptide 9017.0226], the pIC50 was 6.63 on A*6801; 8.15 at A31 (A*3101); 7.31 against HLA-A3.2 (A*0301); 6.62 at A*3301; 6.80 against HLA-A11 (A*1101).

Regarding AIVVWTIAY [Peptide 9017.0115], the pIC50 at A*6801 was 5.14; at A31 (A*3101) it was 5.50; against HLA-A3.2 (A*0301) it was 6.92; against A*3301 it was 5.28; against HLA-A11 (A*1101), 8.04.

Turning to ALFTAQEAK [Peptide 88.0323], the pIC50 was 6.22 against A*6801; 5.57 at A31 (A*3101); 7.55 against HLA-A3.2 (A*0301); 4.79 against A*3301; 7.89 at HLA-A11 (A*1101).

As to ALTALIKPKK [Peptide 9017.0229], the pIC50 was 5.68 against A*6801; 6.05 against A31 (A*3101); 6.28 on HLA-A3.2 (A*0301); less than 4.70 against A*3301; 6.37 against HLA-A11 (A*1101).

Consider AQIEHWKLTR [Peptide 88.0226], for which the pIC50 on A*6801 is 5.54; against A31 (A*3101), 6.53; at HLA-A3.2 (A*0301), 5.68; on A*3301 it was less than 4.70; at HLA-A11 (A*1101), 7.20.

As to AQVLHLLKRK [Peptide 1587.52], the pIC50 against A*6801 is less than 4.70; against A31 (A*3101) it was 4.74; against HLA-A3.2 (A*0301), 6.47; at A*3301 it was less than 4.70; on HLA-A11 (A*1101), 6.51.

As for ATLESITKK [Peptide 78.0300], the pIC50 is 5.71 against A*6801; 5.50 against A31 (A*3101); 7.25 at HLA-A3.2 (A*0301); less than 4.70 at A*3301; 7.74 on HLA-A11 (A*1101).

With ATMCRHYKR [Peptide 1587.08], the pIC50 was 7.22 at A*6801; 8.00 against A31 (A*3101); 7.05 against HLA-A3.2 (A*0301); 7.38 at A*3301; 7.55 against HLA-A11 (A*1101).

Consider ATNKMFCQLAK [Peptide 1556.47], for which the pIC50 was 5.79 against A*6801; 6.80 against A31 (A*3101); 7.54 against HLA-A3.2 (A*0301); less than 4.70 on A*3301; 8.14 on HLA-A11 (A*1101).

As for ATTPIIHLK [Peptide 1589.18], the pIC50 at A*6801 is 8.17; at A31 (A*3101), 7.31; at HLA-A3.2 (A*0301), 8.01; at A*3301 it was 4.95; against HLA-A11 (A*1101), 8.12.

For AVMCRHYKR [Peptide 1587.53], the pIC50 on A*6801 is 7.60; at A31 (A*3101), 7.85; against HLA-A3.2 (A*0301), 6.67; on A*3301 it was 7.23; against HLA-A11 (A*1101), 7.51.

With AVNKMFCQLAK [Peptide 1556.46], the pIC50 at A*6801 is 5.88; against A31 (A*3101) it was 6.55; against HLA-A3.2 (A*0301), 7.26; at A*3301, less than 4.70; at HLA-A11 (A*1101), 8.00.

In the case of CFFTRTWSR [Peptide 88.0382], the pIC50 against A*6801 was 7.28; against A31 (A*3101), 8.37; on HLA-A3.2 (A*0301), 4.87; at A*3301, 8.52; on HLA-A11 (A*1101), 5.83.

Take CTYSPALNR [Peptide 1556.42]: the negative-log IC50 (pIC50) at A*6801 is 7.72; against A31 (A*3101) it was 7.77; at HLA-A3.2 (A*0301), 7.57; against A*3301, 8.07; on HLA-A11 (A*1101) it was 8.02.

With DLPSQIEHWK [Peptide 88.0212], the pIC50 at A*6801 was 7.60; against A31 (A*3101) it was less than 4.70; on HLA-A3.2 (A*0301) it was less than 4.70; against A*3301 it was less than 4.70; against HLA-A11 (A*1101) it was less than 4.70.

Turning to EFMSFLTALK [Peptide 1587.10], the negative-log IC50 (pIC50) on A*6801 is 7.70; against A31 (A*3101), 5.22; on HLA-A3.2 (A*0301), 6.32; at A*3301, 7.68; against HLA-A11 (A*1101), 6.17.

On to EFTAFLDAFK [Peptide 88.0179], for which the pIC50 was 6.90 against A*6801; 4.78 against A31 (A*3101); 5.24 on HLA-A3.2 (A*0301); 7.85 on A*3301; 6.01 at HLA-A11 (A*1101).

For the compound EFTAFLGAFK [Peptide 88.0167], the pIC50 on A*6801 was 6.71; at A31 (A*3101) it was less than 4.70; at HLA-A3.2 (A*0301), 5.33; at A*3301, 7.46; against HLA-A11 (A*1101) it was 6.53.

As to EQNEALELK [Peptide 1556.69], the pIC50 against A*6801 is 4.93; against A31 (A*3101), 5.64; on HLA-A3.2 (A*0301), 6.78; at A*3301 it was less than 4.70; against HLA-A11 (A*1101), 6.89.

Take ESKKEVESK [Peptide 9017.0083]: the pIC50 was 6.80 at A*6801; less than 4.70 against A31 (A*3101); less than 4.70 against HLA-A3.2 (A*0301); less than 4.70 on A*3301; 5.09 on HLA-A11 (A*1101).
